Measurements as given in patent US11008345B2, “Boron-containing small molecules” (Anacor Pharmaceuticals, Inc., priority 2010, dated 2021).
Structures can show the parent of a compound that is named as a salt. Where two headings read alike, the source gives them in different places.

Experiments:
[1] = tested on: M. tuberculosis strain Erdman; format: in vivo; settings: C57BL/6 GKO mice; for log 10 CFU for lungs: day 22, lungs; for log 10 CFU for spleens: day 22, spleens
[2] = tested on: M. tuberculosis strain Erdman; format: in vivo; settings: day 24, C57BL/6 GKO mice

`NNC(=O)c1ccncc1` [INH, Isoniazid, reference compound] was tested, and the “log 10 CFU for lungs” value ([1]; 25 mg/kg QD PO) was 5.29 (0.13) log 10 CFU and the “log 10 CFU for spleens” value ([1]; 25 mg/kg QD PO) was 4.27 (0.25) log 10 CFU.

In the case of `CCOc1ccc(Cl)c2c1B(O)O[C@@H]2CN.Cl` (single isomer, unassigned) [L], the “log 10 CFU/lung” value ([2]; 100 mg/kg QD PO) is reported as 3.08 (0.06) log 10 CFU/lung.

In the case of `CO[C@H]1/C=C/O[C@@]2(C)Oc3c(C)c(O)c4c(O)c(c(/C=N/N5CCN(C)CC5)c(O)c4c3C2=O)NC(=O)/C(C)=C\C=C\[C@H](C)[C@H](O)[C@@H](C)[C@@H](O)[C@@H](C)[C@H](OC(C)=O)[C@@H]1C` [rifampicin, reference compound], the “log 10 CFU/lung” value ([2]; 10 mg/kg QD PO) is reported as 6.16 (0.10) log 10 CFU/lung.

`CCOc1ccc(F)c2c1B(O)OC2CN.Cl` (stereo not shown) [C, 3-Aminomethyl-7-ethoxy-4-fluoro-3H-benzo[c][1,2]-oxaborol-1-ol; Hydrochloride] was tested, and the “log 10 CFU/lung” value ([2]; 100 mg/kg BID PO) was 5.06 (0.26) log 10 CFU/lung.

`CCOc1ccc(Br)c2c1B(O)OC2CN` (stereo not shown) [E, 3-(Aminomethyl)-4-bromo-7-ethoxybenzo[c][1,2]oxaborol-1(3H)-ol 2,2,2-trifluoroacetate Salt] was tested, and the “log 10 CFU for lungs” value ([1]; 100 mg/kg QD PO) was 5.27 (0.12) log 10 CFU, the “log 10 CFU for spleens” value ([1]; 100 mg/kg QD PO) was 4.27 (0.25) log 10 CFU and the “log 10 CFU/lung” value ([2]; 100 mg/kg BID PO) was 2.73 (0.05) log 10 CFU/lung.

For `CCOc1ccc(F)c2c1B(O)O[C@@H]2CN.Cl` (single isomer, unassigned) [N], the “log 10 CFU for lungs” value ([1]; 100 mg/kg BID PO) was 5.51 (0.09) log 10 CFU and the “log 10 CFU for spleens” value ([1]; 100 mg/kg BID PO) was 2.42 (0.48) log 10 CFU.
